According to patent US12668600B2 (Kumquat Biosciences Inc., priority 2023, dated 2026):

Columns and labels:
Type in all cases: biochemical
KRAS WT = molecular target: T1, KRAS WT (Homo sapiens, UniProt P01116); assay: HTRF KRAS-SOS1 interaction assay, wildtype KRAS; settings: binned ≤2 μM / >2 μM, read-out: Inhibition of KRAS WT (IC50)
T1 construct: made in house; host or cells: E. coli, e.g. BL21 (DE3)
From the text: (§1) This assay can be also used to assess a selective inhibition or reduction of signaling output of a mutant Ras protein relative to a wildtype, or relative to a different mutant Ras protein. For example, the equilibrium interaction of wildtype KRAS or K-Ras mutant (e.g., wildtype or a mutant thereof) with SOS1 (e.g., hSOS1) can be assessed as a proxy or an indication for the ability of a subject compound to bind and inhibit Ras protein. The HTRF assay detects from (i) a fluorescence resonance energy transfer (FRET) donor (e.g., antiGST-Europium) that is bound to GST-tagged K-Ras mutant to (ii) a FRET acceptor (e.g., anti-6His-XL665) bound to a His-tagged hSOS1.
(§2) The assay buffer can contain ˜5 mM HEPES pH 7.4, ˜150 mM NaCl, ˜1 mM DTT, 0.05% BSA and 0.0025% (v/v) Igepal. A Ras working solution is prepared in an assay buffer containing typically a suitable amount of the protein construct (e.g., GST-tagged K-Ras mutant) and the FRET donor (e.g., antiGST-Eu (K) from Cisbio, France). A SOS1 working solution is prepared in an assay buffer containing suitable amount of the protein construct (e.g., His-hSOS1) and the FRET acceptor (e.g., anti-6His-XL665 from Cisbio, France). A suitable amount of the protein construct will depend on the range of activity or range of IC50 values being detected or under investigation. For detecting an IC50 within a range of 500 nM, the protein constructs of the same range of molarity can be utilized.
(§3) A fixed volume of DMSO with or without test compound is transferred into a 384-well plate. Ras working solution is added to all wells of the test plate. SOS1 working solution is added to all wells except for those that are subsequently filled with inhibitor control solution. Upon incubation for about 10 minutes or longer, the fluorescence is measured with a M1000Pro plate reader (Tecan) using HTRF detection (excitation 337 nm, emission 1:620 nm, emission 2:665 nm). Compounds are tested in duplicate at different concentrations (for example, 10 μM, 2.5 μM, 0.63 μM, 0.16 μM, 0.04 μM, 0.01 μM test compound). The ratiometric data (i.e., emission 2 divided by emission 1) is used to calculate IC50 values against Ras using GraphPad Prism (GraphPad software). Signaling output measured in terms of IC50 values can be obtained and a ratio of IC50 against one mutant relative to another mutant can be calculated.

KRAS G12V = molecular target: T2, KRAS G12V (Homo sapiens, UniProt P01116, G12V); assay: HTRF KRAS-SOS1 interaction assay, KRAS G12V; settings: binned ≤2 μM / >2 μM, read-out: Inhibition of KRAS G12V (IC50)
T2 construct: made in house; host or cells: E. coli, e.g. BL21 (DE3)
T2 sequence (P01116 1-188 isoform P01116-2 G12V): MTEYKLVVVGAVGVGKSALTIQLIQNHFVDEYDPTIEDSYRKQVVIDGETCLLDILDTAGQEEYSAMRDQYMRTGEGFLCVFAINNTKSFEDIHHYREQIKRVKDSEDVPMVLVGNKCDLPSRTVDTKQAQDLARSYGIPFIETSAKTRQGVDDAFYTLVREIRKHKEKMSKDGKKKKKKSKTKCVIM
From the text: as §1, §2, §3

KRAS G12S = molecular target: T3, KRAS G12S (Homo sapiens, UniProt P01116, G12S); assay: HTRF KRAS-SOS1 interaction assay, KRAS G12S; settings: binned ≤2 μM / >2 μM, read-out: Inhibition of KRAS G12S (IC50)
T3 construct: made in house; host or cells: E. coli, e.g. BL21 (DE3)
T3 sequence (P01116 1-188 isoform P01116-2 G12S): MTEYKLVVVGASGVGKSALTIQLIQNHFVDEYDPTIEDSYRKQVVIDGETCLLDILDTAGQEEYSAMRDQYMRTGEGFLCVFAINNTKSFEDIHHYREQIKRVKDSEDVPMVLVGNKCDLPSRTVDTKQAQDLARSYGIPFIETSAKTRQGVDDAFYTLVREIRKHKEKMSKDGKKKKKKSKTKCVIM
From the text: as §1, §2, §3

T1 sequence (P01116 1-188 isoform P01116-2): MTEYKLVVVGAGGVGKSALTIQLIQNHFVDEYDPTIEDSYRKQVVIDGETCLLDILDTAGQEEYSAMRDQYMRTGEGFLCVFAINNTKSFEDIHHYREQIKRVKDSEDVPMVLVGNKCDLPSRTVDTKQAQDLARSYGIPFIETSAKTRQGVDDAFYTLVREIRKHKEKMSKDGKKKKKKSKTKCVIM

Compound | IC50 (KRAS WT) | IC50 (KRAS G12V) | IC50 (KRAS G12S)
CCC(c1cccnc1N)N1CCOc2c(Cl)c(-c3ccc(F)c4sc(N)c(C#N)c34)c(F)c3nc(OC[C@@]45CCCN4C[C@H](F)C5)nc1c23 (mixture of isomers) [Compound 643, 2-amino-4-(4-(1-(2-aminopyridin-3-yl)propyl)-8-chloro-10-fluoro-2-(((2R,7aS)-2-fluorotetrahydro-1H-pyrrolizin-7a(5H)-yl)methoxy)-5,6-dihydro-4H-[1,4]oxazepino[5,6,7-de]quinazolin-9-yl)-7-fluorobenzo[b]thiophene-3-carbonitrile] | ≤ 2 µM | ≤ 2 µM | ≤ 2 µM
CCO/N=C1\CN2CCC[C@@]2(COc2nc3c4c(c(Cl)c(-c5ccc(F)c6sc(N)c(C#N)c56)c(F)c4n2)OCCN3[C@H](C)c2cccnc2N)C1 (single isomer, unassigned) [Compound 627] | ≤ 2 µM | ≤ 2 µM | ≤ 2 µM
N#Cc1c(N)sc2c(F)ccc(-c3c(Cl)c4c5c(nc(OC[C@@]67CCCN6C[C@H](F)C7)nc5c3F)N(C(c3cccnc3N)C(F)F)CCO4)c12 (single isomer, unassigned) [Compound 618] | ≤ 2 µM | ≤ 2 µM | ≤ 2 µM
N#Cc1c(N)sc2c(F)ccc(-c3c(Cl)c4c5c(nc(OC[C@@]67CCCN6C[C@H](F)C7)nc5c3F)N(C(C=C(F)F)c3cccnc3N)CCO4)c12 (single isomer, unassigned) [Compound 655] | ≤ 2 µM | ≤ 2 µM | ≤ 2 µM
C=Cc1c(-c2ccc(F)c3sc(N)c(C#N)c23)c(F)c2nc(OC[C@@]34CCCN3C[C@H](F)C4)nc3c2c1OCCN3[C@H](C)c1cccnc1N (single isomer, unassigned) [Compound 603] | ≤ 2 µM | ≤ 2 µM | ≤ 2 µM
CC(c1cccnc1N)N1CCOc2c(Cl)c(-c3ccc(F)c4sc(N)c(C#N)c34)c(F)c3nc(OC[C@@]45CCCN4C[C@H](F)C5)nc1c23 (single isomer, unassigned) [Compound 656] | ≤ 2 µM | ≤ 2 µM | ≤ 2 µM
CC(c1cccnc1N)N1c2nc(OC[C@@]34CCCN3C[C@H](F)C4)nc3c(F)c(-c4ccc(F)c5sc(N)c(C#N)c45)c(Cl)c(c23)OC[C@@H]1CC#N (mixture of isomers) [Compound 615, 2-amino-4-((5S)-4-(1-(2-aminopyridin-3-yl)ethyl)-8-chloro-5-(cyanomethyl)-10-fluoro-2-(((2R,7aS)-2-fluorotetrahydro-1H-pyrrolizin-7a (5H)-yl)methoxy)-5,6-dihydro-4H-[1,4]oxazepino[5,6,7-de]quinazolin-9-yl)-7-fluorobenzo[b]thiophene-3-carbonitrile] | ≤ 2 µM | ≤ 2 µM | ≤ 2 µM
N#Cc1c(N)sc2c(F)ccc(-c3c(Cl)c4c5c(nc(OC[C@@]67CCCN6C[C@H](F)C7)nc5c3F)N(C(CC(F)F)c3cccnc3N)CCO4)c12 (mixture of isomers) [Compound 681, 2-amino-4-(4-(1-(2-aminopyridin-3-yl)-3,3-difluoropropyl)-8-chloro-10-fluoro-2-(((2R,7aS)-2-fluorotetrahydro-1H-pyrrolizin-7a(5H)-yl)methoxy)-5,6-dihydro-4H-[1,4]oxazepino[5,6,7-de]quinazolin-9-yl)-7-fluorobenzo[b]thiophene-3-carbonitrile] | ≤ 2 µM | ≤ 2 µM | ≤ 2 µM
C[C@H](c1cccnc1N)N1CCOc2c(Cl)c(-c3ccc(F)c4sc(N)c(C#N)c34)c(F)c3nc(OCC45CCCN4C[C@H](OCCCP(C)(C)=O)C5)nc1c23 (single isomer, unassigned) [Compound 677] | ≤ 2 µM | ≤ 2 µM | ≤ 2 µM
C[C@H](c1cccnc1N)N1CCOc2c(C(F)(F)F)c(-c3cccc4sc(N)c(C#N)c34)c(F)c3nc(OC[C@@]45CCCN4C[C@H](F)C5)nc1c23 (single isomer, unassigned) [Compound 678] | ≤ 2 µM | ≤ 2 µM | ≤ 2 µM
C[C@H](c1ccc(F)nc1N)N1CCOc2c(C(F)(F)F)c(-c3ccc(F)c4sc(N)c(C#N)c34)c(F)c3nc(OC[C@@]45CCCN4C[C@H](F)C5)nc1c23 (single isomer, unassigned) [Compound 628] | ≤ 2 µM | ≤ 2 µM | ≤ 2 µM
C[C@H](c1cccnc1N)N1CCOc2c(C(F)(F)F)c(-c3ccc(F)c4sc(N)c(C#N)c34)c(F)c3nc(OC[C@@]45CCCN4CC(C#N)C5)nc1c23 (single isomer, unassigned) [Compound 663] | ≤ 2 µM | ≤ 2 µM | ≤ 2 µM
C[C@H]1CN([C@@H](c2cccnc2N)C(F)F)c2nc(OC[C@@]34CCCN3C[C@H](F)C4)nc3c(F)c(-c4ccc(F)c5sc(N)c(C#N)c45)c(C(F)(F)F)c(c23)O1 (single isomer, unassigned) [Compound 879] | ≤ 2 µM | ≤ 2 µM | ≤ 2 µM
CO/N=C1\CN2CCC[C@@]2(COc2nc3c4c(c(Cl)c(-c5ccc(F)c6sc(N)c(C#N)c56)c(F)c4n2)OCCN3[C@H](C)c2cccnc2N)C1 (single isomer, unassigned) [Compound 607] | ≤ 2 µM | ≤ 2 µM | ≤ 2 µM

Results, then the compound that gave them:

IC50 (KRAS WT) | IC50 (KRAS G12V) | IC50 (KRAS G12S) | Compound
≤ 2 µM | ≤ 2 µM | ≤ 2 µM | N#Cc1c(N)sc2c(F)ccc(-c3c(C(F)(F)F)c4c5c(nc(OC[C@@]67CCCN6C[C@H](F)C7)nc5c3F)N([C@H](CC3CC(F)(F)C3)c3cccnc3N)CCO4)c12 (single isomer, unassigned) [Compound 686]
≤ 2 µM | ≤ 2 µM | ≤ 2 µM | N#Cc1c(N)sc2c(F)ccc(-c3c(C(F)(F)F)c4c5c(nc(OC[C@@]67CCCN6C[C@H](F)C7)nc5c3F)N([C@H](CCN3CCOCC3)c3cccnc3N)CCO4)c12 (single isomer, unassigned) [Compound 685]
≤ 2 µM | ≤ 2 µM | ≤ 2 µM | CN(C)CC[C@H](c1cccnc1N)N1CCOc2c(C(F)(F)F)c(-c3ccc(F)c4sc(N)c(C#N)c34)c(F)c3nc(OC[C@@]45CCCN4C[C@H](F)C5)nc1c23 (single isomer, unassigned) [Compound 669]
≤ 2 µM | ≤ 2 µM | ≤ 2 µM | CS(=O)(=O)CCC[C@H](c1cccnc1N)N1CCOc2c(C(F)(F)F)c(-c3ccc(F)c4sc(N)c(C#N)c34)c(F)c3nc(OC[C@@]45CCCN4C[C@H](F)C5)nc1c23 (single isomer, unassigned) [Compound 629]
≤ 2 µM | ≤ 2 µM | ≤ 2 µM | N#Cc1c(N)sc2c(F)ccc(-c3c(C(F)(F)F)c4c5c(nc(OC[C@@]67CCCN6C[C@H](F)C7)nc5c3F)N([C@H](CCC3COCCO3)c3cccnc3N)CCO4)c12 (single isomer, unassigned) [Compound 624]
≤ 2 µM | ≤ 2 µM | ≤ 2 µM | N#Cc1c(N)sc2c(F)ccc(-c3c(C(F)(F)F)c4c5c(nc(OC[C@@]67CCCN6C[C@H](F)C7)nc5c3F)N([C@H](CC3CCOCC3)c3cccnc3N)CCO4)c12 (single isomer, unassigned) [Compound 642]
≤ 2 µM | ≤ 2 µM | ≤ 2 µM | N#Cc1c(N)sc2c(F)ccc(-c3c(C(F)(F)F)c4c5c(nc(OC[C@@]67CCCN6C[C@H](F)C7)nc5c3F)N([C@@H](c3cccnc3N)C(F)F)CCO4)c12 (single isomer, unassigned) [Compound 625]
≤ 2 µM | ≤ 2 µM | ≤ 2 µM | CP(C)(=O)CC[C@H](c1cccnc1N)N1CCOc2c(C(F)(F)F)c(-c3ccc(F)c4sc(N)c(C#N)c34)c(F)c3nc(OC[C@@]45CCCN4C[C@H](F)C5)nc1c23 (single isomer, unassigned) [Compound 671]
≤ 2 µM | ≤ 2 µM | ≤ 2 µM | C=CC[C@H](c1cccnc1N)N1CCOc2c(C(F)(F)F)c(-c3ccc(F)c4sc(N)c(C#N)c34)c(F)c3nc(OC[C@@]45CCCN4C[C@H](F)C5)nc1c23 (single isomer, unassigned) [Compound 616]
